In patent EP3628659A1, “SELENOESTER-CONTAINING COMPOUNDS FOR USE IN THE TREATMENT OF MICROBIAL INFECTIONS OR COLORECTAL CANCER” (Consejo Superior De Investigaciones Científicas, priority 2018, dated 2020):

What was measured:
Type in all cases: cell-based
ABCB1 efflux pump = target: T1, ABCB1 efflux pump (Homo sapiens, UniProt P08183); assay: Rhodamine 123 assay of inhibition of MDR efflux pumps (flow cytometry); conditions: Quotient = 100 × FARcompound/FARverapamil, verapamil 20 µM, Colo 320 vs Colo 205; for Inhibition of efflux pumps At 2 µM concentration: compound 2 µM; for Inhibition of efflux pumps At 20 µM concentration: compound 20 µM
T1 construct: The colonic adenocarcinoma cells (the doxorubicin-sensitive Colo 205 and the multidrug resistant Colo 320); host or cells: Colo 320/MDR-LRP (multidrug resistant), with Colo 205 (ATCC-CCL-222) as the sensitive parental comparator
Method: This method, described in Gajdács et al, 2017, Bioorg Med Chem Lett. 27(4): 797-802, is a fluorescence-based detection system which uses verapamil as reference inhibitor of the ABCB1 efflux pump. The colonic adenocarcinoma cells (the doxorubicin-sensitive Colo 205 and the multidrug resistant Colo 320) were adjusted to a density of 2×10^6/mL, re-suspended in serum-free RPMI 1640 medium and distributed in 0.5 mL aliquots into Eppendorf centrifuge tubes. Selenocompounds (1 and 10 µL from a stock solution of 1 mM, respectively) were added at different concentrations (2 µM and 20 µM final concentrations, respectively), and the samples were incubated for 10 min at room temperature. Next, 10 µL (5.2 µM final concentration) of rhodamine 123 was added to the samples and the cells were incubated for 20 minutes at 37°C, washed twice with phosphate buffered saline (PBS) and re-suspended in 1 mL PBS for analysis. The fluorescence intensity of the cell population was measured with a Partec CyFlow flow cytometer (Partec, Munster, Germany). Verapamil was used as a positive control at 20 µM final concentration in the rhodamine 123 exclusion experiments. The mean fluorescence intensity (%) was calculated for the treated multidrug resistance (MRD) Colo 320 and sensitive Colo 205 cell lines as compared to the untreated cells. The fluorescence activity ratio (FAR) was calculated based on the following equation which relates the measured fluorescence values: FAR = (MDRtreated /MDRcontrol)/(parentaltreated /parentalcontrol); Quotient = 100 × (FARcompound/FARverapamil) [formula]

[1] = Cytotoxicity assay (MTT) in non-tumoral MRC-5 cells; conditions: human, IC50 class, non-tumoral cell line; for IC50 at 24 h: MRC-5 embryonal lung fibroblast cells (non-tumoral)
Method: Cytotoxicity assays in human colonic adenocarcinoma cell lines Colo 205 doxorubicin-sensitive (ATCC-CCL-222) and Colo 320/MDR-LRP multidrug resistant overexpressing ABCB1 (MDR1)-LRP (ATCC-CCL-220.1) were performed following the procedure described by Gajdács et al, 2017, Bioorg Med Chem Lett. 27(4): 797-802. The effects of increasing concentrations of selenium compounds on cell growth were tested in 96-well flat-bottomed microtiter plates. The selectivity of the action towards cancer cells was assessed through the evaluation of cytotoxic activity in a non-tumoral cell line, the MRC-5 human embryonal lung fibroblast cell lines (ATCC CCL-171), as described in Gajdács et al, 2017, Bioorg Med Chem Lett. 27(4): 797-802.
All cell lines were purchased from LGC Promochem, Teddington, UK. The colonic cells were cultured in RPMI 1640 medium supplemented with 10% heat-inactivated fetal bovine serum, 2 mM L-glutamine, 1 mM Na-pyruvate and 100 mM Hepes. The cell lines were incubated at 37°C, in a 5% CO2, 95% air atmosphere. The semi-adherent human colon cancer cells were detached with Trypsin-Versene (EDTA) solution for 5 min at 37°C. Alternatively, MRC-5 cells was cultured in Eagle's Minimal Essential Medium (EMEM, containing 4.5 g/L glucose) supplemented with a non-essential amino acid mixture, a selection of vitamins and 10% heat-inactivated fetal bovine serum. The cell lines were incubated at 37°C, in a 5% CO2, 95% air atmosphere.
The compounds were diluted in a volume of 100 µL of medium. The two-fold serial dilutions of selenocompounds were prepared in 100 µL of RPMI 1640, horizontally. The semi-adherent colonic adenocarcinoma cells were treated with Trypsin-Versene (EDTA) solution. They were adjusted to a density of 2×10^4 cells in 100 µL of RPMI 1640 medium, and were added to each well, with the exception of the medium control wells. The final volume of the wells containing selenocompounds and cells was 200 µL.
The culture plates were incubated at 37°C for 24 h; at the end of the incubation period, 20 µL of MTT (thiazolyl blue tetrazolium bromide, Sigma) solution (from a stock solution of 5 mg/mL) were added to each well. After incubation at 37°C for 4 h, 100 µL of sodium dodecyl sulfate (SDS) (Sigma) solution (10% in 0.01 M HCI) were added to each well and the plates were further incubated at 37°C overnight. Cell growth was determined by measuring the optical density (OD) at 540/630 nm with Multiscan EX ELISA reader (Thermo Labsystems, Cheshire, WA, USA). Inhibition of the cell growth was determined according to the formula below: […] = 100−[(OD sample−OD medium control)/(OD cell control−OD medium control)] × 100 [formula]
Results are expressed in terms of IC50, defined as the inhibitory dose that reduces the growth of the cells exposed to the tested compounds by 50%. Regarding the selectivity, the selectivity indexes (SI) were calculate, being SI the quotient of the IC50 in non-tumoral cells (MRC-5) and the respective cancer cell (Colo-205 or Colo-320). Compound is considered moderately selective when SI < 6 and ≥ 3; and strongly selective when SI ≥ 6.

Escherichia coli AG100 = assay: MIC determination (CLSI), E. coli AG100; conditions: MIC class
Method: The effects exerted by different concentrations of the compounds on bacterial growth in Staphylococcus aureus 25923 ATCC, Staphylococcus aureus multidrug resistant 272123 clinical isolate (MRSA), Escherichia coli AG100 or Escherichia coli AG100 A were tested in 96-well plates. The MIC of selenocompounds was determined according to Clinical and Laboratory Standard Institute (CLSI) guidelines. The solvent used (DMSO) had no antibacterial effect. Alternatively, the MICs of oxacillin of the compounds in MRSA HEMSA 5 were determined by a broth microdilution method in cation-adjusted Mueller-Hinton Broth (MHB II) according to the recommendations of the CLSI. Results were recorded after a 20- or 24-hour incubation at 37°C.

T1 sequence (P08183 whole entry): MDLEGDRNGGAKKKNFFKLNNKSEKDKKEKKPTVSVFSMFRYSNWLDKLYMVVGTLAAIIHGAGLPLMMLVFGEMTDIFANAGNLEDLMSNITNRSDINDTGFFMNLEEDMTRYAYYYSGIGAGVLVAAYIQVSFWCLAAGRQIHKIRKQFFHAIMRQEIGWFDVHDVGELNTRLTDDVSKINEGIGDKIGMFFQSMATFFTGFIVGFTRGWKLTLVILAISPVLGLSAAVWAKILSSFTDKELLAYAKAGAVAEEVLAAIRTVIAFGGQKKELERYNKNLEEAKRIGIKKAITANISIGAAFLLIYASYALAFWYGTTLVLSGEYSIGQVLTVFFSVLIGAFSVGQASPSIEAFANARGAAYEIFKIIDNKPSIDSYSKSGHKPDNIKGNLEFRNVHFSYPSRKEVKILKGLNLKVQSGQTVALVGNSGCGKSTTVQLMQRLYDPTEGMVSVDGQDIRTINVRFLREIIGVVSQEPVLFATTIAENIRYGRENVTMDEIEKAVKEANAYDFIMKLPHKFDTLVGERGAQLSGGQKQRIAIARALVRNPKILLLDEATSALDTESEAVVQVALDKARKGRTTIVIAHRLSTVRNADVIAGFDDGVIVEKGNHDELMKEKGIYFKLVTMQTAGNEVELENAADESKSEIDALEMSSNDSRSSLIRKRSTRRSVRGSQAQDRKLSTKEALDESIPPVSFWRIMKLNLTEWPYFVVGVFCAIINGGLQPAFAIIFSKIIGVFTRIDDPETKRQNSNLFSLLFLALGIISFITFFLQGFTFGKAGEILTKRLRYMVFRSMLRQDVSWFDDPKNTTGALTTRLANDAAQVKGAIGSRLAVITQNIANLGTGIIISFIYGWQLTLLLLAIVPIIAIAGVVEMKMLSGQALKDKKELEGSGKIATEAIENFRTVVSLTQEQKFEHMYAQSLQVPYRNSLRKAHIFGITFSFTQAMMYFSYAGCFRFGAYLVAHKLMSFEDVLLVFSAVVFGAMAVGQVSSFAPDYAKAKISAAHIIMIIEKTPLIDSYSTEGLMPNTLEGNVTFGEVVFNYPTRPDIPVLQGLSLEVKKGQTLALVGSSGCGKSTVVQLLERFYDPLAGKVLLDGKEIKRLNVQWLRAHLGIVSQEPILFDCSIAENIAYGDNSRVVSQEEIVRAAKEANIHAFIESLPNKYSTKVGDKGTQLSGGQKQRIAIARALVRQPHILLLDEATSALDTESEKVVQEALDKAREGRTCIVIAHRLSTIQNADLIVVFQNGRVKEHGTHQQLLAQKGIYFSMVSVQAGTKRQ

| SMILES | Inhibition of efflux pumps At 2 µM concentration (ABCB1 efflux pump) | Inhibition of efflux pumps At 20 µM concentration (ABCB1 efflux pump) | IC50 at 24 h [1] | Antibacterial activity Against E. coli AG100 (Escherichia coli AG100) | CC50 ([1]; mrc-5 cells) |
| --- | --- | --- | --- | --- | --- |
| CC(=O)C[Se]C(=O)c1ccc(C(=O)[Se]CC(C)=O)cc1 [Compound 22, Se,Se-bis-(2-oxopropyl) benzene-1,4-bis-(carboselenoate)] | *** (Very potent inhibitors of MDR efflux pumps: Quotient ≥ 200% (≥ 2-fold more potent than reference verapamil)) | *** (Very potent inhibitors of MDR efflux pumps: Quotient ≥ 200% (≥ 2-fold more potent than reference verapamil)) | < 1 µM | ** (Moderate antibacterial compounds: 10 µM < MIC ≤ 50 µM) | – |
| N#CC[Se]C(=O)c1cc(C(=O)[Se]CC#N)cc(C(=O)[Se]CC#N)c1 [Compound 20, Se,Se,Se-tris-(cyanomethyl) benzene-1,3,5-tris-(carboxyselenoate)] | ** (Potent inhibitors of MDR efflux pumps: 100% ≤ Quotient < 200% (from 1- to 2-fold more potent than reference verapamil)) | ** (Potent inhibitors of MDR efflux pumps: 100% ≤ Quotient < 200% (from 1- to 2-fold more potent than reference verapamil)) | > 50 µM | NA (Not antibacterial compounds: MIC ≥ 100 µM) | – |
| N#CC[Se]C(=O)c1cccc(C(=O)[Se]CC#N)c1 [Compound 19, Se,Se-bis-(cyanomethyl)benzene-1,3-bis-(carboselenoate)] | ** (Potent inhibitors of MDR efflux pumps: 100% ≤ Quotient < 200% (from 1- to 2-fold more potent than reference verapamil)) | ** (Potent inhibitors of MDR efflux pumps: 100% ≤ Quotient < 200% (from 1- to 2-fold more potent than reference verapamil)) | – | NA (Not antibacterial compounds: MIC ≥ 100 µM) | > 50 µM |
| N#CC[Se]C(=O)c1ccc(C(=O)[Se]CC#N)cc1 [Compound 18, Se,Se-bis-(cyanomethyl) benzene-1,4-bis-(carboselenoate)] | ** (Potent inhibitors of MDR efflux pumps: 100% ≤ Quotient < 200% (from 1- to 2-fold more potent than reference verapamil)) | ** (Potent inhibitors of MDR efflux pumps: 100% ≤ Quotient < 200% (from 1- to 2-fold more potent than reference verapamil)) | > 50 µM | ** (Moderate antibacterial compounds: 10 µM < MIC ≤ 50 µM) | – |
| CC(=O)C[Se]C(=O)c1cc(C(=O)[Se]CC(C)=O)cc(C(=O)[Se]CC(C)=O)c1 [Compound 24, Se,Se,Se-tris-(2-oxopropyl) benzene-1,3,5-tris-(carboxyselenoate)] | *** (Very potent inhibitors of MDR efflux pumps: Quotient ≥ 200% (≥ 2-fold more potent than reference verapamil)) | *** (Very potent inhibitors of MDR efflux pumps: Quotient ≥ 200% (≥ 2-fold more potent than reference verapamil)) | < 1 µM | ** (Moderate antibacterial compounds: 10 µM < MIC ≤ 50 µM) | – |
| CC(=O)C[Se]C(=O)c1cccc(C(=O)[Se]CC(C)=O)c1 [Compound 23, Se,Se-bis-(2-oxopropyl) benzene-1,3-bis-(carboselenoate)] | *** (Very potent inhibitors of MDR efflux pumps: Quotient ≥ 200% (≥ 2-fold more potent than reference verapamil)) | *** (Very potent inhibitors of MDR efflux pumps: Quotient ≥ 200% (≥ 2-fold more potent than reference verapamil)) | 1 to 10 µM | ** (Moderate antibacterial compounds: 10 µM < MIC ≤ 50 µM) | – |
